Consider two molecules from patent US20110245294A1, “METHODS OF IMPROVING QUALITY OF SLEEP” (THERAVIDA, INC., priority 2010, published 2011).

Data set [1] relates to patients being treated for OAB. The text has this: Enrollment of subjects already taking this medication was used to enable the collection of steady-state baseline information and to minimize discontinuations during the 4-week treatment period. On three consecutive days, subjects were asked to complete paper diaries where the subject answered questions related to the degree of difficulty of sleep and responded by using a VAS. These questions and VAS have been validated and used in other clinical studies. Furthermore, each subject relinquished the completed diary at the end of each treatment period following a review by clinic staff.
The methods used to collect information for assessment of quality of sleep, subjects were asked specific questions and they rated their quality of sleep using a VAS. The mean of the values obtained on each of the three days was used as the sole value for the baseline or treatment value. The methods used to evaluate effect on quality of sleep of the combination and oxybutynin alone are widely used and considered standard.
The VAS is a validated scale utilized in clinical trials and registrational studies of many drugs. Patients were instructed on how to complete the diary over 3 consecutive days and perform VAS assessments for quality of sleep on the diary days. The ratings were from 0 to 100 on a 100-mm line, and the patient was asked to rate themself by marking the horizontal line. For instance, quality of sleep was quantified as 0=easy and 100=difficult.

A further data set has as its system healthy volunteers. The conditions noted are these: some studies have suggested; cited from earlier work.

As for `CCN(CC)CC#CCOC(=O)C(O)(c1ccccc1)C1CCCCC1` (centres unmarked) [Oxybutynin, oxybutynin], in data set [1] (100-point mm scale, reduction from baseline), the “VAS quality of sleep response versus baseline or monotherapy, in words” value is listed as “unchanged from baseline”. Also, the “Change in LSM from Baseline in Quality of Sleep” value in data set [1] (ITT population, N = 42, lower scores indicate improvement from baseline, P value 0.0073 between treatments) is 3.7 mm. Further, the “Quality of Sleep Value (VAS), mean” value in data set [1] (mean over subjects, 0=easy, 100=difficult, 2 weeks treatment, baseline mean 37.6 mm) amounted to 41.3 mm. In addition, the effect on sleep entry with healthy volunteers is “adverse effect on the sleep”.
On to `O=C(O[C@H]1C[C@H]2CC[C@@H](C1)[N+]21CCCC1)C(O)(c1ccccc1)c1ccccc1` [trospium], for which the effect on sleep result with healthy volunteers is on record as “adverse effect on the sleep”.
